Measurements reported in patent publication US12281080B2, “Quinoline-based compounds and methods of inhibiting CDK8/19” (University of South Carolina, priority 2018, dated 2025).

Experiments:
[1] = molecular target: RIPK1 (Homo sapiens (Human), UniProt Q13546); test: KINOMEscan scanMAX; type: binding; details: 2000 nM; read-out: Percent Control
[2] = molecular target: NEK5 (Homo sapiens (Human), UniProt Q6P3R8); test: KINOMEscan scanMAX; type: binding; details: 2000 nM; read-out: Percent Control
[3] = molecular target: CAMK1G (Homo sapiens (Human), UniProt Q96NX5); test: KINOMEscan scanMAX; type: binding; details: 2000 nM; read-out: Percent Control
[4] = molecular target: NEK10 (Homo sapiens (Human), UniProt Q6ZWH5); test: KINOMEscan scanMAX; type: binding; details: 2000 nM; read-out: Percent Control
[5] = molecular target: PIK3CA(M1043I) (Homo sapiens (Human), UniProt P42336, M1043I); test: KINOMEscan scanMAX; type: binding; details: 2000 nM; read-out: Percent Control
[6] = test system: FLT3(ITD, F691L); test: KINOMEscan scanMAX; type: binding, human; details: 2000 nM
[7] = molecular target: ERK8 (MAPK15) (Homo sapiens (Human), UniProt Q8TD08); test: KINOMEscan scanMAX; type: binding; details: 2000 nM; read-out: Percent Control
[8] = molecular target: VEGFR2 (KDR) (Homo sapiens (Human), UniProt P35968); test: KINOMEscan scanMAX; type: binding; details: 2000 nM; read-out: Percent Control
[9] = molecular target: WNK1 (Homo sapiens (Human), UniProt Q9H4A3); test: KINOMEscan scanMAX; type: binding; details: 2000 nM; read-out: Percent Control
[10] = molecular target: PIK3CA(H1047Y) (Homo sapiens (Human), UniProt P42336, H1047Y); test: KINOMEscan scanMAX; type: binding; details: 2000 nM; read-out: Percent Control
[11] = molecular target: AURKA (Homo sapiens (Human), UniProt O14965); test: KINOMEscan scanMAX; type: binding; details: 2000 nM; read-out: Percent Control
[12] = molecular target: PKAC-beta (PRKACB) (Homo sapiens (Human), UniProt P22694); test: KINOMEscan scanMAX; type: binding; details: 2000 nM; read-out: Percent Control
[13] = molecular target: SIK (SIK1) (Homo sapiens (Human), UniProt P57059); test: KINOMEscan scanMAX; type: binding; details: 2000 nM; read-out: Percent Control
[14] = molecular target: PIK3CA(E542K) (Homo sapiens (Human), UniProt P42336, E542K); test: KINOMEscan scanMAX; type: binding; details: 2000 nM; read-out: Percent Control
[15] = test system: MV4-11 cells; test: MV4-11-Luc proliferation assay (BLI); type: cell-based; details: Homo sapiens, MV4-11, 168 h; 7 days
Protocol: The anti-leukemic activity was evaluated with a MV4-11 assay. The population of MV4-11 cells, which depend on CDK8/19 for their proliferation, was made to express Luciferase and ZsGreen by lenvtiral infection with pHIV-Luc-ZsGreen, to enable leukemia growth analysis by bioluminescence imaging (BLI). The initial Luciferase-ZsGreen transduced cell population was sorted for ZsGreen positivity with fluorescence activated cell sorting. The MV4-11 assay was performed in 96-well plates by treating the MV4-11-Luc cells with testing compounds at different concentrations for 7 days, followed by BLI to quantify the effects of test articles on cell proliferation.

[16] = molecular target: ERK5 (MAPK7) (Homo sapiens (Human), UniProt Q13164); test: KINOMEscan scanMAX; type: binding; details: 2000 nM; read-out: Percent Control
[17] = molecular target: RSK2(Kin.Dom.1-N-terminal) (RPS6KA3) (Homo sapiens (Human), UniProt P51812); test: KINOMEscan scanMAX; type: binding; details: 2000 nM; read-out: Percent Control
[18] = molecular target: RSK3(Kin.Dom.1-N-terminal) (RPS6KA2) (Homo sapiens (Human), UniProt Q15349); test: KINOMEscan scanMAX; type: binding; details: 2000 nM; read-out: Percent Control
[19] = molecular target: p38-delta (MAPK13) (Homo sapiens (Human), UniProt O15264); test: KINOMEscan scanMAX; type: binding; details: 2000 nM; read-out: Percent Control
[20] = molecular target: LOK (STK10) (Homo sapiens (Human), UniProt O94804); test: KINOMEscan scanMAX; type: binding; details: 2000 nM; read-out: Percent Control
[21] = molecular target: PIK3CA(H1047L) (Homo sapiens (Human), UniProt P42336, H1047L); test: KINOMEscan scanMAX; type: binding; details: 2000 nM; read-out: Percent Control
[22] = molecular target: PAK1 (Homo sapiens (Human), UniProt Q13153); test: KINOMEscan scanMAX; type: binding; details: 2000 nM; read-out: Percent Control
[23] = molecular target: MYO3A (Homo sapiens (Human), UniProt Q8NEV4); test: KINOMEscan scanMAX; type: binding; details: 2000 nM; read-out: Percent Control
[24] = test system: 468 human kinases and disease relevant mutant variants; test: KINOMEscan scanMAX panel, whole panel; type: binding; details: 2,000 nM; CDK2, 3, 4, 5, 7, 9, 11A, 11B, 13, 14, 15, 16, 17, 18, CDKL1, CDKL3, CDKL5
[25] = molecular target: AKT1 (Homo sapiens (Human), UniProt P31749); test: KINOMEscan scanMAX; type: binding; details: 2000 nM; read-out: Percent Control
[26] = molecular target: CHEK1 (Homo sapiens (Human), UniProt O14757); test: KINOMEscan scanMAX; type: binding; details: 2000 nM; read-out: Percent Control
[27] = molecular target: FLT3(D835H) (Homo sapiens (Human), UniProt P36888, D835H); test: KINOMEscan scanMAX; type: binding; details: 2000 nM; read-out: Percent Control
[28] = molecular target: GSK3A (Homo sapiens (Human), UniProt P49840); test: KINOMEscan scanMAX; type: binding; details: 2000 nM; read-out: Percent Control
[29] = molecular target: ERBB4 (Homo sapiens (Human), UniProt Q15303); test: KINOMEscan scanMAX; type: binding; details: 2000 nM; read-out: Percent Control
[30] = molecular target: FER (Homo sapiens (Human), UniProt P16591); test: KINOMEscan scanMAX; type: binding; details: 2000 nM; read-out: Percent Control
[31] = molecular target: VRK2 (Homo sapiens (Human), UniProt Q86Y07); test: KINOMEscan scanMAX; type: binding; details: 2000 nM; read-out: Percent Control
[32] = molecular target: PRKG1 (Homo sapiens (Human), UniProt Q13976); test: KINOMEscan scanMAX; type: binding; details: 2000 nM; read-out: Percent Control
[33] = molecular target: MST2 (STK3) (Homo sapiens (Human), UniProt Q13188); test: KINOMEscan scanMAX; type: binding; details: 2000 nM; read-out: Percent Control
[34] = molecular target: HUNK (Homo sapiens (Human), UniProt P57058); test: KINOMEscan scanMAX; type: binding; details: 2000 nM; read-out: Percent Control
[35] = molecular target: ALK (Homo sapiens (Human), UniProt Q9UM73); test: KINOMEscan scanMAX; type: binding; details: 2000 nM; read-out: Percent Control
Sequence of ALK (Q9UM73 19-1620): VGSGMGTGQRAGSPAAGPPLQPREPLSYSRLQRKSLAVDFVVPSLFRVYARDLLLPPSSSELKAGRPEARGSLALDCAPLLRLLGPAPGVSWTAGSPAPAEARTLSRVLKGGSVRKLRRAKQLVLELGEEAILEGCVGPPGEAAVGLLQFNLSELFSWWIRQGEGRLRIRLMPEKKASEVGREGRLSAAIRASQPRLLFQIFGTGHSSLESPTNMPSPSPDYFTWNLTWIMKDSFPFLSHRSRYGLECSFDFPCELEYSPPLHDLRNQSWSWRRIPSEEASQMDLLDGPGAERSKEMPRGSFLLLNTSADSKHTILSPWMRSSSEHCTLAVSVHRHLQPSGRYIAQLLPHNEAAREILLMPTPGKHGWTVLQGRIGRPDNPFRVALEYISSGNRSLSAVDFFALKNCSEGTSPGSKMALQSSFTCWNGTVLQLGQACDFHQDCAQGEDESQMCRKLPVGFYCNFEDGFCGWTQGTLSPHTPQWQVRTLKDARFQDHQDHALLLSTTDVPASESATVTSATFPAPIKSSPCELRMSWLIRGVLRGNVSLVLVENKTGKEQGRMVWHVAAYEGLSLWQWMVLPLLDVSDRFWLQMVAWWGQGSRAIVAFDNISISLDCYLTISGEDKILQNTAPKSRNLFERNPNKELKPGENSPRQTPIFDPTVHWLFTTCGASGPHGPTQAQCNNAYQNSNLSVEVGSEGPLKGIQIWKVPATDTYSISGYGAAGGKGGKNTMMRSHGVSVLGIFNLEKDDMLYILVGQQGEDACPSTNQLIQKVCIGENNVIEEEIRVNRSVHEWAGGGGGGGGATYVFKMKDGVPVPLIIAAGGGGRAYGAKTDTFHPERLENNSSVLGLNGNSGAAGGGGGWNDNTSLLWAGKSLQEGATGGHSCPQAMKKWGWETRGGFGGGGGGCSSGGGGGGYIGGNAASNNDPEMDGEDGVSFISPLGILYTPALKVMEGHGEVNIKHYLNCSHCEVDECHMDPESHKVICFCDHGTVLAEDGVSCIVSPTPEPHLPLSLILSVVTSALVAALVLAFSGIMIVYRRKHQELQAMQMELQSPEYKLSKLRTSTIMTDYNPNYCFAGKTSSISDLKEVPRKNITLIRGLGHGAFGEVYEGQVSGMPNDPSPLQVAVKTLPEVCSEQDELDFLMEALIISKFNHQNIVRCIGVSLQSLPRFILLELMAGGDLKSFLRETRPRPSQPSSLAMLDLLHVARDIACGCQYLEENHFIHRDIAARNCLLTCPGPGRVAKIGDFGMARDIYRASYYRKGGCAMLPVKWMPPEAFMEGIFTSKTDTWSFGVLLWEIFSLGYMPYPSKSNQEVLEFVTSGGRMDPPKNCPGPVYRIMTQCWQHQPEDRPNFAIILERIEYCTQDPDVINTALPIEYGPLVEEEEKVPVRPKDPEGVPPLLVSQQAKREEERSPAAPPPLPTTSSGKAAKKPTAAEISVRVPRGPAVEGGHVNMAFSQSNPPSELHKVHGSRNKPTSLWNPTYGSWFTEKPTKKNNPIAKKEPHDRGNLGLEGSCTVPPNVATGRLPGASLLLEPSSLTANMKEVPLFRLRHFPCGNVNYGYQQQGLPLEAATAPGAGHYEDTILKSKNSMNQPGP

Sequence of RSK3(Kin.Dom.1-N-terminal) (RPS6KA2) (Q15349 59-318): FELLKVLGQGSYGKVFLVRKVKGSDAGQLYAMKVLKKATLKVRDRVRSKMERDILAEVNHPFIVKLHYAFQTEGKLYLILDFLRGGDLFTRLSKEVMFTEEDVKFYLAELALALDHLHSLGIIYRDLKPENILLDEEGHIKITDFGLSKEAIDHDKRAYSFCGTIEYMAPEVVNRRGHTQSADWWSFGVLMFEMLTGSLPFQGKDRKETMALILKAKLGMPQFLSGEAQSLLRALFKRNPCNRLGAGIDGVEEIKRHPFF
Sequence of NEK10 (Q6ZWH5 whole entry): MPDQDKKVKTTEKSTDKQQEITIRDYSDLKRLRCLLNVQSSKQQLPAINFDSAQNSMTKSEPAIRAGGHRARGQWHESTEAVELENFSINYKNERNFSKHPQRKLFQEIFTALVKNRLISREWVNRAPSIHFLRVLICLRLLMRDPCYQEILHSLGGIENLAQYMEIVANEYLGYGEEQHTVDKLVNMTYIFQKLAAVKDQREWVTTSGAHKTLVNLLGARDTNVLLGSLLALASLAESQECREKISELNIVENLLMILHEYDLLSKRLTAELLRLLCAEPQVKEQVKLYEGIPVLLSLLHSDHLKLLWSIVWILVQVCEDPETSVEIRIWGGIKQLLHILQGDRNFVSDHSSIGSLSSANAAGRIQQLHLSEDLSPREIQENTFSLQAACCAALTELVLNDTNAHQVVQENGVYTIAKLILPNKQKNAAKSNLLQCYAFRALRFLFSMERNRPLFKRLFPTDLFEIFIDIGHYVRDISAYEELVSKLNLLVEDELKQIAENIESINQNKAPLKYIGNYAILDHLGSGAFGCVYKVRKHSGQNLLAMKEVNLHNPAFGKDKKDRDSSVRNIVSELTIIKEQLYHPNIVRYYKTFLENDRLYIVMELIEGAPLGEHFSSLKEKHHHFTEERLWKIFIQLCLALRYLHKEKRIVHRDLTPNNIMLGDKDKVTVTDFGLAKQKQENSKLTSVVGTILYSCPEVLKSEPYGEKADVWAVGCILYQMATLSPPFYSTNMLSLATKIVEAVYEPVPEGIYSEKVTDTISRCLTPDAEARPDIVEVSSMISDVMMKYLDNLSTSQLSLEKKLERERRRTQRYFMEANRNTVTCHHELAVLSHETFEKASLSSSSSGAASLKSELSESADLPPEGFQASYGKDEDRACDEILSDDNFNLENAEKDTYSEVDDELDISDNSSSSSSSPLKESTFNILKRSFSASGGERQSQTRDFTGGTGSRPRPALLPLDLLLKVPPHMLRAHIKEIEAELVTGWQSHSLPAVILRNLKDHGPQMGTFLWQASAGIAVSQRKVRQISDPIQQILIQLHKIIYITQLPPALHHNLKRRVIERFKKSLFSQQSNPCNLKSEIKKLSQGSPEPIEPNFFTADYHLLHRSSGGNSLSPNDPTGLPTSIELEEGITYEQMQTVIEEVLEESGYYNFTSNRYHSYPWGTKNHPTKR
Sequence of LOK (STK10) (O94804 whole entry): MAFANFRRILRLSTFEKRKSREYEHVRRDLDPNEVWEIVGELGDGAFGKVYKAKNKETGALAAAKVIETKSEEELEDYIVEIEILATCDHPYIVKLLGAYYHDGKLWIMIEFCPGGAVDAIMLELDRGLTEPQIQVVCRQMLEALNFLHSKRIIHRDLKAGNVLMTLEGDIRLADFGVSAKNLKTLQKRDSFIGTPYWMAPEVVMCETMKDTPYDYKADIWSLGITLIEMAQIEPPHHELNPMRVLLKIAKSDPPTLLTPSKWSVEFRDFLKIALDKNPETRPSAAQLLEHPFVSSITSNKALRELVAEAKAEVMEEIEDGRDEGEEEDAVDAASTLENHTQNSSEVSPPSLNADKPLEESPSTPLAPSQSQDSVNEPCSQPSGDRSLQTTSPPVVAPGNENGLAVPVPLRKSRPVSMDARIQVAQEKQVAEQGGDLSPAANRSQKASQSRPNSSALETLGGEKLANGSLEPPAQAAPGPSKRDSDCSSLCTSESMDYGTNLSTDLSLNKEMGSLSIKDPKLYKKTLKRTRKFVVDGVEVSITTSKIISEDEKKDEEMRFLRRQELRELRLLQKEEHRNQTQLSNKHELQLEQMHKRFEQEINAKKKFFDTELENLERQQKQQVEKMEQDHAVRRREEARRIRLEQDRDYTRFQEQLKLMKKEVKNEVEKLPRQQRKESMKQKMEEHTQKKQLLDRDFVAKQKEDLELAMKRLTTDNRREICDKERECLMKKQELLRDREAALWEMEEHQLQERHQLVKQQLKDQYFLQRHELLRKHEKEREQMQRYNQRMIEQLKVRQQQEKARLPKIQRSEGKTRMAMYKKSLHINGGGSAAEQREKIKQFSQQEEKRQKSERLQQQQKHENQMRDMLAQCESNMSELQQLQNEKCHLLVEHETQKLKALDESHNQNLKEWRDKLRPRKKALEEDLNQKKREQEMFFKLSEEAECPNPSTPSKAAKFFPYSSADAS
Sequence of RSK2(Kin.Dom.1-N-terminal) (RPS6KA3) (P51812 68-327): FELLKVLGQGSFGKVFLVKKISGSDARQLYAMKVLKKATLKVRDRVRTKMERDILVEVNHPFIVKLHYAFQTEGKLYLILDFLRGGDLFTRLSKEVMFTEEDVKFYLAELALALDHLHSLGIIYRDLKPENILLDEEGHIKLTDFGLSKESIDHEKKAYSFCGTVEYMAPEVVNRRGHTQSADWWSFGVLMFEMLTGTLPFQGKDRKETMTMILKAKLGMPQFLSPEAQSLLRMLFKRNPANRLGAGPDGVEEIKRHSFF
Sequence of MST2 (STK3) (Q13188 whole entry): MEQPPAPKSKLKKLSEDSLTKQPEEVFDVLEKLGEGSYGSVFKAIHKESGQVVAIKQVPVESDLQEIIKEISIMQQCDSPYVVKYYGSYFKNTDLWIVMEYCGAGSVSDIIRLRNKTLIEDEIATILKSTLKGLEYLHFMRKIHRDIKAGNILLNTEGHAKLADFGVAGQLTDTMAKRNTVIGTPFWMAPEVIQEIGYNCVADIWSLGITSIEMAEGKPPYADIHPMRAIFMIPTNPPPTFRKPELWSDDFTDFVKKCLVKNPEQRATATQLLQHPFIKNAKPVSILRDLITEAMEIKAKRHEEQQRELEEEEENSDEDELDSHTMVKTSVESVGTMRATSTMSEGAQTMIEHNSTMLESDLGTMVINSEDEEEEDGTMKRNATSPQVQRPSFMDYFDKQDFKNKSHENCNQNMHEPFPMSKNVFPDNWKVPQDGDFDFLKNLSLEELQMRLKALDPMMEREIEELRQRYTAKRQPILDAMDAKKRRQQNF

CN1CCN(C(=O)c2ccc3cc(CCNc4ccnc5ccc(C#N)cc45)ccc3c2)CC1 [compound 6148, 4-((2-(6-(4-methylpiperazine-1-carbonyl)naphthalen-2-yl)ethyl)amino)quinoline-6-carbonitrile]
remaining binding at 2 µM [1]: 100%
remaining binding at 2 µM [2]: 97%
remaining binding at 2 µM [3]: 92%
remaining binding at 2 µM [4]: 41%
remaining binding at 2 µM [5]: 80%
Percent Control [6]: 59%
remaining binding at 2 µM [7]: 76%
remaining binding at 2 µM [8]: 82%
remaining binding at 2 µM [9]: 72%
remaining binding at 2 µM [10]: 91%
remaining binding at 2 µM [11]: 88%
remaining binding at 2 µM [12]: 100%
remaining binding at 2 µM [13]: 91%
remaining binding at 2 µM [14]: 55%
IC50 [15]: 117 nM
remaining binding at 2 µM [16]: 94%
remaining binding at 2 µM [17]: 62%
remaining binding at 2 µM [18]: 100%
remaining binding at 2 µM [19]: 97%
remaining binding at 2 µM [20]: 94%
remaining binding at 2 µM [21]: 84%
remaining binding at 2 µM [22]: 92%
remaining binding at 2 µM [23]: 100%
POC of the other members of the CDK family in the scanMAX panel [24]: ≥ 64 POC
remaining binding at 2 µM [25]: 89%
remaining binding at 2 µM [26]: 100%
remaining binding at 2 µM [27]: 88%
remaining binding at 2 µM [28]: 94%
remaining binding at 2 µM [29]: 95%
remaining binding at 2 µM [30]: 91%
remaining binding at 2 µM [31]: 58%
remaining binding at 2 µM [32]: 100%
remaining binding at 2 µM [33]: 100%
remaining binding at 2 µM [34]: 74%
remaining binding at 2 µM [35]: 89%
